Results reported in ChEMBL document CHEMBL5096227, “Discovery of Ervogastat (PF-06865571): A Potent and Selective Inhibitor of Diacylglycerol Acyltransferase 2 for the Treatment of Non-alcoholic Steatohepatitis” (J Med Chem, 2022).

Tests used:
physchem = conditions: buffer, pH 7.4
Description: Lipophilicity, logD of compound at pH 7.4 by shake flask method

[1] = Apparent permeability in MDCK-II cells; type: ADME, cell-based, Canis lupus familiaris; conditions: dog
[2] = Apparent intrinsic clearance in cryopreserved human hepatocytes measured per million cells at 1 uM incubated for 4 hrs by LC-MS/MS analysis; type: ADME, cell-based, Hepatocyte; conditions: for hepatocyte CLint at 1 µM: cryopreserved human hepatocytes, read-out: CLH
[3] = target: T1, Diacylglycerol O-acyltransferase 2 (Homo sapiens, UniProt Q96PD7); test: Inhibition of human DGAT2 expressed in Sf9 insect cell membrane using [1-14C]decanoyl-CoA and 1,2-didecanoyl-sn-glycerol as substrates assessed as incorporation of [1-14C]decanoyl into triacylglycerol preincubated for 120 mins followed by substrate addition and measured after 40 mins by scintillation counting method; type: cell membranes
T1 sequence (Q96PD7 whole entry): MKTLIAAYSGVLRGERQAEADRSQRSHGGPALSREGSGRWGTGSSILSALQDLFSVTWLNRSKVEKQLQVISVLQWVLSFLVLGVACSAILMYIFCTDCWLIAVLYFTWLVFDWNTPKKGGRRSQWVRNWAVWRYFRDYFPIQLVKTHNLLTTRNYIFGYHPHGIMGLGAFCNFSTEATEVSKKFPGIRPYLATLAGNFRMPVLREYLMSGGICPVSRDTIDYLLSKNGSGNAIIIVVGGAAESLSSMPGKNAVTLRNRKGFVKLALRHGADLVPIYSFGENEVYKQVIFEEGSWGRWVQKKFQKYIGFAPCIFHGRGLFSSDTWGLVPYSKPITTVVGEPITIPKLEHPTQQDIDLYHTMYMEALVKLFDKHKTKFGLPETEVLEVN

Cytochrome P450 2C8 = target: T2, Cytochrome P450 2C8 (Homo sapiens, UniProt P10632); test: Reversible inhibition of CYP2C8 in pooled human liver microsomes using desethylamodiaquine as substrate incubated for 10 mins in presence of NADPH by HPLC-MS/MS analysis; type: ADME, Microsome
T2 sequence (P10632 whole entry): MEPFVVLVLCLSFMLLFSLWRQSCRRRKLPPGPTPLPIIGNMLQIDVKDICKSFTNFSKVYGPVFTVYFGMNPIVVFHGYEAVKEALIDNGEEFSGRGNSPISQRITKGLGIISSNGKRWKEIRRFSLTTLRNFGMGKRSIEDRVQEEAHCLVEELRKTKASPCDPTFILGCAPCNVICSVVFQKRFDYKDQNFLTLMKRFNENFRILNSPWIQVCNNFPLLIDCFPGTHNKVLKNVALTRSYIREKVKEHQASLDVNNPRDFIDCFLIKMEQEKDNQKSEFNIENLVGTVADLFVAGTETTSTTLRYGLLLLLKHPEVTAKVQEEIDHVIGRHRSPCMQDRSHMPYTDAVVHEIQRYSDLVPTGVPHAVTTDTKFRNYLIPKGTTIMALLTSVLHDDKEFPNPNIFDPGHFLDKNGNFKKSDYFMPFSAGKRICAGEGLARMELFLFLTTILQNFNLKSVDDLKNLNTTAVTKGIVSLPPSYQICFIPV

Cytochrome P450 2C19 = Cytochrome P450 2C19 (Homo sapiens, UniProt P33261); test: Reversible inhibition of CYP2C19 in pooled human liver microsomes using 4-Hydroxymephenytoin as substrate incubated for 20 mins in presence of NADPH by HPLC-MS/MS analysis; type: ADME, Microsome
[4] = Apparent intrinsic clearance in human liver microsomes in presence of NADPH; type: ADME, Microsome; conditions: read-out: CLH
[5] = target: T3, Diacylglycerol O-acyltransferase 1 (Homo sapiens, UniProt O75907); test: Inhibition of human DGAT1 using [1-14C]decanoyl-CoA and 1,2-didecanoyl-sn-glycerol as substrates assessed as incorporation of [1-14C]decanoyl […] preincubated for 30 mins followed by substrate addition and measured after 30 to 90 mins by scintillation counting method
T3 sequence (O75907 whole entry): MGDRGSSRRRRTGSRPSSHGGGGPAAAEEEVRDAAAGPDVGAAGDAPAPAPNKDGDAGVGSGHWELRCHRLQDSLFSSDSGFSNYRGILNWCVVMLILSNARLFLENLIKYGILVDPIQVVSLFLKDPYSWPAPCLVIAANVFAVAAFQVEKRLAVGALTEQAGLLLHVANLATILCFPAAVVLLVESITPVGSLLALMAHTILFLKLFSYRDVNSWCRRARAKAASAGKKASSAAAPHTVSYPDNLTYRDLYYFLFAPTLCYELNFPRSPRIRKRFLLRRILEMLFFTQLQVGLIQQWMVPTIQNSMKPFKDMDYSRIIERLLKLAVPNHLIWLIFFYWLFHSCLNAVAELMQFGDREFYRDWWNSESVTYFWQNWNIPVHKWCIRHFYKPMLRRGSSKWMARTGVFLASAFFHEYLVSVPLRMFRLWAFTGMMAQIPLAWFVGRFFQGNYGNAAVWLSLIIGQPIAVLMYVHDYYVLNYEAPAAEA

[6] = Plasma clearance in Wistar Han rat; type: ADME
[7] = Volume of distribution at steady state in Wistar Han rat; type: ADME; conditions: in vivo, read-out: Vdss
CYP3A4/5 = CYP3A4/5 (Homo sapiens, UniProt P08684+P20815); test: Reversible inhibition of CYP3A4/5 in pooled human liver microsomes; type: ADME, Microsome
[8] = Drug metabolism in cryopreserved human hepatocytes assessed as O-deethylation mediated pyridin-3-ol metabolite formation at 10 uM measured for 240 mins by HPLC-UV-MS analysis; type: ADME, cell-based, Hepatocyte; conditions: 4 h
[9] = Oral bioavailability in Wistar Han rat at 5 mg/kg; type: ADME, organism-based; conditions: in vivo
[10] = Dissociation constant, pKa of compound; type: physicochemical
[11] = Drug metabolism in cryopreserved human hepatocytes assessed as O-dearylation mediated oxidative metabolite formation at 10 uM measured for 240 mins by HPLC-UV-MS analysis; type: ADME, cell-based, Hepatocyte; conditions: 4 h
Cytochrome P450 2D6 = Cytochrome P450 2D6 (Homo sapiens, UniProt P10635); test: Reversible inhibition of CYP2D6 in pooled human liver microsomes using dextrorphan as substrate incubated for 14 mins in presence of NADPH by HPLC-MS/MS analysis; type: ADME, Microsome
[12] = Half life in human; type: ADME
[13] = Half life in Wistar Han rat; type: ADME; conditions: in vivo
Cytochrome P450 2C9 = Cytochrome P450 2C9 (Homo sapiens, UniProt P11712); test: Reversible inhibition of CYP2C9 in pooled human liver microsomes using 4-Hydroxydiclofenac as substrate incubated for 10 mins in presence of NADPH by HPLC-MS/MS analysis; type: ADME, Microsome
Cytochrome P450 1A2 = target: T4, Cytochrome P450 1A2 (Homo sapiens, UniProt P05177); test: Reversible inhibition of CYP1A2 in pooled human liver microsomes using […] as substrate incubated for 20 mins in presence of NADPH by HPLC-MS/MS analysis; type: ADME, Microsome
T4 sequence (P05177 whole entry): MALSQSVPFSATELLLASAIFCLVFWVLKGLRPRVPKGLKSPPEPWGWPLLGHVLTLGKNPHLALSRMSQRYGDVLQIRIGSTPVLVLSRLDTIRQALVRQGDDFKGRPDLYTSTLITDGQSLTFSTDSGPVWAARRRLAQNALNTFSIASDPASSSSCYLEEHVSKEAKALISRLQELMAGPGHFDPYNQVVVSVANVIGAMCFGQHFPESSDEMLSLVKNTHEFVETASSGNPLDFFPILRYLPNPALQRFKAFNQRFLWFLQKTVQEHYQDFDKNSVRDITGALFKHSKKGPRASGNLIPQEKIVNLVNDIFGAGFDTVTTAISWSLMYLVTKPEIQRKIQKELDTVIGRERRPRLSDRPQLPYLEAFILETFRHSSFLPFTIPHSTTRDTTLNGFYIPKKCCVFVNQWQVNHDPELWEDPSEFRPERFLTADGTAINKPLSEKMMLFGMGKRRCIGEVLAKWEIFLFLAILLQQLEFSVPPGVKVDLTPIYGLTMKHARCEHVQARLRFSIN

[14] = Drug metabolism in cryopreserved human hepatocytes assessed as oxidation of primary alcohol to carboxylic acid mediated metabolite formation at 10 uM measured for 240 mins by HPLC-UV-MS analysis; type: ADME, cell-based, Hepatocyte; conditions: 4 h
Cytochrome P450 2B6 = target: T5, Cytochrome P450 2B6 (Homo sapiens, UniProt P20813); test: Reversible inhibition of CYP2B6 in pooled human liver microsomes; type: ADME, Microsome
T5 sequence (P20813 whole entry): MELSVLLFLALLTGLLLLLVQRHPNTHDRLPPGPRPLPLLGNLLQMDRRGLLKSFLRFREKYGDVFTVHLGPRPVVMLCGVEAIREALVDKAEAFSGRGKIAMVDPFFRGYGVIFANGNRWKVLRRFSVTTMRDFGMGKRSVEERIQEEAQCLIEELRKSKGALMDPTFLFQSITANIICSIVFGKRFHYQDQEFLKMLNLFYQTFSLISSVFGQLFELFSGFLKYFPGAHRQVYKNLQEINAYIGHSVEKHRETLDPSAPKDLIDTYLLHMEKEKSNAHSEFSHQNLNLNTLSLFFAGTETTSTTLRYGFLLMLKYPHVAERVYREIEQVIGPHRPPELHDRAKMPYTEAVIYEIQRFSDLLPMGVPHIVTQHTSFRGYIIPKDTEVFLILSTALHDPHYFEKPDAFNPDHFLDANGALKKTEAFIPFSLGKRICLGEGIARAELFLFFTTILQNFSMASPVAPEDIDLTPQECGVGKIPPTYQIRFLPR

[15] = Apparent intrinsic clearance in human liver microsomes; type: ADME, Microsome; conditions: read-out: CLH
[16] = Lipophilicity, logD of compound; type: physicochemical; conditions: octanol/water
[17] = Apparent intrinsic clearance in human hepatocytes measured per million cells; type: ADME, cell-based, Hepatocyte; conditions: read-out: CLH
[18] = Apparent permeability of compound; type: ADME; conditions: not told

Sequence of Cytochrome P450 2C9 (P11712 whole entry): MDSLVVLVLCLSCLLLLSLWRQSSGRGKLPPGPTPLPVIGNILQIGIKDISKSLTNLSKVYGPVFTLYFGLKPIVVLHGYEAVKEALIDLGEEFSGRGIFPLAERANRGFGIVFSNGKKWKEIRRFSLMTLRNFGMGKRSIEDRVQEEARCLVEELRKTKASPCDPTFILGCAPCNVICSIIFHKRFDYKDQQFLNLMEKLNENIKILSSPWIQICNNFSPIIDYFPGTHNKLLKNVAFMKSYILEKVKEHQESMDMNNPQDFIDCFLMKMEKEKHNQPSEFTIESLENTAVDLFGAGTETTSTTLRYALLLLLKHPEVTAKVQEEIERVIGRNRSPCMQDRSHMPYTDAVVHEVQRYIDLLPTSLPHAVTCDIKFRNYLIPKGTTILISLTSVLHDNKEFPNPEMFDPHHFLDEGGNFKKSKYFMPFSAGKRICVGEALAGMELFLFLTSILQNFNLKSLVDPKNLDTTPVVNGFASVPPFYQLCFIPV
Sequence of Cytochrome P450 2D6 (P10635 whole entry): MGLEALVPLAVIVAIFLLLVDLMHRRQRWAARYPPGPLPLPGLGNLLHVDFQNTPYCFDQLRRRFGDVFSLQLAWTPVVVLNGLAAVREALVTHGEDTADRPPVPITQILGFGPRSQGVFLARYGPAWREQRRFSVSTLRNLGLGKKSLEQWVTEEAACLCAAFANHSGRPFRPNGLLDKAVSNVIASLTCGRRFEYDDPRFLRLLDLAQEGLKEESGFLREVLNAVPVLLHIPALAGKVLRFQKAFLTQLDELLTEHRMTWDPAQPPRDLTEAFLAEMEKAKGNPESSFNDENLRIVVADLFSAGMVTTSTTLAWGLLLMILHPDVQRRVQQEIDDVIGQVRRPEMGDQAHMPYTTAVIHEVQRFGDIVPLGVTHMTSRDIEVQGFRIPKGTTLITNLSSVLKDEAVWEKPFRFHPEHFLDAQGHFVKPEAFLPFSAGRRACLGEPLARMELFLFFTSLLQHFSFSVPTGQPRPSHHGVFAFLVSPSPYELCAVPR
Sequence of Cytochrome P450 2C19 (P33261 whole entry): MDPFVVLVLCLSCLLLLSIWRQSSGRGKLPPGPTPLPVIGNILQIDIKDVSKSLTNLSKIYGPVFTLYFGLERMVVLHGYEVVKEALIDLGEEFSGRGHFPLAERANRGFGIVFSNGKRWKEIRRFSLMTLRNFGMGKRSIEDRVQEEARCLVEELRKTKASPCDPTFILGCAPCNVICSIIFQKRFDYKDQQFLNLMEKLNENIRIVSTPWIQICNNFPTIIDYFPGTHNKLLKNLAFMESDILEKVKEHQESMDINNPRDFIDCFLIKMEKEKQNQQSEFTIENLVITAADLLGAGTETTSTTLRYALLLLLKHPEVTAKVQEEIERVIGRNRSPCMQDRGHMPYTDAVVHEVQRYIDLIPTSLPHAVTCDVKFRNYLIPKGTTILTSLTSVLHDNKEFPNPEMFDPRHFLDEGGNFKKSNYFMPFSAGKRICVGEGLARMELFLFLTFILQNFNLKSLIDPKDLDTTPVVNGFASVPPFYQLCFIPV

SMILES	logD (physchem)	Papp ([1]; MDCK, read-out: Papp)	hepatocyte CLint at 1 µM [2]	IC50 [3]	other results
CCOc1cccnc1Oc1cncc(-c2ncc(C(=O)NC3CCOCC3)cn2)c1	2.6	20 ×10⁻⁶ cm/s	7 µL/min/1e6 cells	353 nM	–
CCNC(=O)c1cnc(-c2cncc(Oc3ncccc3OCC)c2)nc1	–	15 ×10⁻⁶ cm/s	7 µL/min/1e6 cells	84.6 nM	–
CCOc1cccnc1Oc1cncc(-c2ncc(C(=O)NC(C)(C)CO)cn2)c1	2	21 ×10⁻⁶ cm/s	8 µL/min/1e6 cells	6.6 nM	IC50 (Cytochrome P450 2C8): > 30000 nM; IC50 (Cytochrome P450 2C19): > 30000 nM; microsomal CLint [4]: 14 µL/min/mg; IC50 [5]: > 50000 nM; clearance [6]: 57 mL/min/kg; Vd [7]: 1.2 L/kg; IC50 (CYP3A4/5): > 30000 nM; Drug metabolism [8]: Metabolite_Detected; bioavailability [9]: 29%; pKa [10]: 2.5; Drug metabolism [11]: Metabolite_Notdetected; IC50 (Cytochrome P450 2D6): > 30000 nM; half-life [12]: > 240 min; half-life [13]: 24 min; IC50 (Cytochrome P450 2C9): 7800 nM; IC50 (Cytochrome P450 1A2): > 30000 nM; Drug metabolism [14]: Metabolite_Detected; IC50 (Cytochrome P450 2B6): > 24000 nM
CCOc1ccccc1O[C@@H]1CCCN(c2ncc(C(=O)NCc3cccc(C(=O)O)c3)cn2)C1	–	–	–	–	microsomal CLint [15]: 9 µL/min/mg; logD [16]: 0.7; hepatocyte CLint [17]: < 12 µL/min/1e6 cells; Papp [18]: 2 ×10⁻⁶ cm/s
CCOc1cccnc1Oc1cncc(-c2ncc(C(=O)NC(C)(C)CS(C)(=O)=O)cn2)c1	1.9	15 ×10⁻⁶ cm/s	8 µL/min/1e6 cells	–	–
CCOc1ccccc1O[C@@H]1CCCN(c2ncc(C(=O)NC(C)(C)CO)cn2)C1	2.8	19 ×10⁻⁶ cm/s	–	–	microsomal CLint [4]: 121 µL/min/mg
CCOc1cccnc1Oc1cncc(-c2ncc(C(=O)N[C@@H]3CCOC3)cn2)c1	1.9	14 ×10⁻⁶ cm/s	5 µL/min/1e6 cells	–	–
CCOc1cccnc1O[C@@H]1CCCN(c2ncc(C(=O)NC(C)(C)CO)cn2)C1	1.8	–	–	31.8 nM	microsomal CLint [4]: 108 µL/min/mg
CCOc1cccnc1Oc1cncc(-c2ncc(C(=O)NC3CC(=O)N(C)C3)cn2)c1 (racemic)	1.7	1 ×10⁻⁶ cm/s	< 3 µL/min/1e6 cells	501 nM	–
CCOc1cccnc1Oc1cncc(-c2ncc(C(=O)NC3CCCOC3)cn2)c1 (racemic)	2.2	23 ×10⁻⁶ cm/s	11 µL/min/1e6 cells	11.5 nM	–
CCOc1cccnc1Oc1cncc(-c2ncc(C(=O)NC3CCS(=O)(=O)C3)cn2)c1 (racemic)	1.6	5 ×10⁻⁶ cm/s	5 µL/min/1e6 cells	–	–
CCOc1cccnc1Oc1cncc(-c2ncc(C(=O)NC3(CO)CCOC3)cn2)c1 (stereo in doubt; 4)	1.6	4 ×10⁻⁶ cm/s	< 3 µL/min/1e6 cells	–	–
CCOc1cccnc1Oc1cncc(-c2ncc(C(=O)NC3(CO)CCOC3)cn2)c1 (stereo in doubt; 5)	–	–	–	–	Papp ([1]; mdck-ii): 3 10^-6 cm/s; CLH ([2]; hepatocytes, 4 h, 1 µM): < 4 µL/min
